In US20060069132A1, “Azolecarboxamide herbicides” (priority 2004, published 2006):

Columns and labels:
Test in all cases: Test C pre-/postemergence herbicide test
bermudagrass = assay type: in vivo, Cynodon dactylon; conditions: for Bermudagrass plant response rating: 500 g ai/ha
How it was run: (§1)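 Pre- and postemergence application, solvent/surfactant formulation; post at 1- to 4-leaf stage (2–18 cm). Greenhouse 12–14 d. Visual rating vs controls, 0 = no effect, 100 = complete control.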

Surinam grass = assay type: in vivo, Urochloa decumbens
How it was run: as §1

cocklebur = assay type: in vivo, Xanthium strumarium; conditions: for Cocklebur plant response rating: Preemergence, 500 g ai/ha
How it was run: as §1

corn = assay type: in vivo, Zea mays
How it was run: as §1

large crabgrass = assay type: in vivo, Digitaria sanguinalis
How it was run: as §1

giant foxtail = assay type: in vivo, Setaria faberi
How it was run: as §1

goosegrass = assay type: in vivo, Eleusine indica
How it was run: as §1

kochia = assay type: in vivo, Kochia scoparia
How it was run: as §1

[1] = system: common (oilseed) sunflower; assay type: in vivo, Helianthus annuus; conditions: for Plant response rating, Sunflower: preemergence
How it was run: as §1

[2] = 62 g ai/ha, preemergence, scale 0 to 100, 0 no effect, 100 complete control
[3] = 125 g ai/ha, scale 0 (no effect) to 100 (complete control), visual, 12 to 14 days, preemergence
[4] = 250 g ai/ha, scale 0 to 100 (0 no effect, 100 complete control), visual, 12 to 14 days, preemergence
[5] = Preemergence, scale 0 to 100, 0 no effect, 100 complete control
[6] = 62 g ai/ha, preemergence, scale 0 to 100
[7] = Preemergence, 500 g ai/ha, scale 0 to 100, 0 no effect, 100 complete control
[8] = scale 0 to 100, 0 no effect, 100 complete control
[9] = 250 g ai/ha, scale 0-100, preemergence
[10] = Postemergence, 250 g ai/ha, scale 0 to 100, 0 no effect, 100 complete control
[11] = postemergence, 125 g ai/ha, scale 0 to 100
[12] = postemergence, 62 g ai/ha, scale 0 to 100
[13] = 500 g ai/ha, scale 0 to 100 (0 no effect, 100 complete control), visual, 12 to 14 days, preemergence
[14] = Postemergence, 500 g ai/ha, scale 0 to 100

CCc1nn(C(C)(C)C)cc1C(=O)Nc1cccc(C(C)=NO)c1 [Compound 188]
Plant response rating, Bermudagrass (bermudagrass; [2]): 75 | Plant response rating, Bermudagrass (bermudagrass; [3]): 100 | Plant response rating, Bermudagrass (bermudagrass; [4]): 100 | Bermudagrass plant response rating (bermudagrass; [5]): 100 | Plant response rating, Surinam Grass (Surinam grass; [6]): 20 | Plant response rating, Surinam Grass (Surinam grass; [3]): 30 | Surinam Grass plant response rating (Surinam grass; [7]): 80 | Plant response rating, Cocklebur (cocklebur; [6]): 0 | Plant response rating, Cocklebur (cocklebur; [3]): 0 | Plant response rating, Cocklebur (cocklebur; [4]): 0 | Cocklebur plant response rating (cocklebur; [8]): 0 | Plant response rating, Corn (corn; [6]): 0 | Plant response rating, Corn (corn; [3]): 0 | Plant response rating, Corn (corn; [4]): 0 | Corn plant response rating (corn; [7]): 5 | Plant response rating, Crabgrass, Large (large crabgrass; [6]): 95 | Plant response rating, Crabgrass, Large (large crabgrass; [3]): 95 | Plant response rating, Crabgrass, Large (large crabgrass; [4]): 95 | Crabgrass, Large plant response rating (large crabgrass; [7]): 100 | Plant response rating, Foxtail, Giant (giant foxtail; [6]): 0 | Plant response rating, Foxtail, Giant (giant foxtail; [3]): 55 | Plant response rating, Foxtail, Giant (giant foxtail; [4]): 70 | Foxtail, Giant plant response rating (giant foxtail; [7]): 100 | Plant response rating, Goosegrass (goosegrass; [6]): 15 | Plant response rating, Goosegrass (goosegrass; [3]): 70 | Goosegrass plant response rating (goosegrass; [7]): 90 | Plant response rating, Kochia (kochia; [6]): 0 | Plant response rating, Kochia (kochia; [3]): 0 | Kochia plant response rating (kochia; [7]): 95 | Plant response rating, Sunflower ([1]; 62 g ai/ha, scale 0 to 100): 0 | Plant response rating, Sunflower ([1]; 125 g ai/ha, scale 0 (no effect) to 100 (complete control), visual, 12 to 14 days): 0 | Sunflower plant response rating [1, 7]: 0

CCn1nc(C(C)(C)C)cc1C(=O)Nc1cccc(OC(F)(F)C(F)F)c1 [Compound 333]
Plant response rating, Bermudagrass (bermudagrass; [2]): 40 | Plant response rating, Bermudagrass (bermudagrass; [3]): 85 | Plant response rating, Bermudagrass (bermudagrass; [9]): 100 | Bermudagrass plant response rating (bermudagrass; Postemergence, scale 0 to 100): 5 | Plant response rating, Bermudagrass (bermudagrass; [10]): 5 | Bermudagrass plant response rating (bermudagrass; [5]): 100 | Plant response rating, Bermudagrass (bermudagrass; [11]): 0 | Plant response rating, Bermudagrass (bermudagrass; [12]): 0 | Plant response rating, Surinam Grass (Surinam grass; [9]): 5 | Plant response rating, Surinam Grass (Surinam grass; [13]): 20 | Surinam Grass plant response rating (Surinam grass; [14]): 10 | Plant response rating, Surinam Grass (Surinam grass; [10]): 5 | Plant response rating, Surinam Grass (Surinam grass; [11]): 5 | Plant response rating, Surinam Grass (Surinam grass; [12]): 5 | Plant response rating, Cocklebur (cocklebur; [6]): 0 | Plant response rating, Cocklebur (cocklebur; [3]): 0 | Plant response rating, Cocklebur (cocklebur; [9]): 0 | Plant response rating, Cocklebur (cocklebur; [10]): 80 | Cocklebur plant response rating (cocklebur; [8]): 5 | Plant response rating, Cocklebur (cocklebur; [11]): 5 | Plant response rating, Cocklebur (cocklebur; [12]): 0 | Plant response rating, Corn (corn; [6]): 0 | Plant response rating, Corn (corn; [3]): 0 | Plant response rating, Corn (corn; [9]): 0 | Plant response rating, Corn (corn; [13]): 0 | Corn plant response rating (corn; [14]): 5 | Plant response rating, Corn (corn; [10]): 5 | Plant response rating, Corn (corn; [11]): 5 | Plant response rating, Corn (corn; [12]): 5 | Plant response rating, Crabgrass, Large (large crabgrass; [6]): 20 | Plant response rating, Crabgrass, Large (large crabgrass; [3]): 70 | Plant response rating, Crabgrass, Large (large crabgrass; [9]): 100 | Plant response rating, Crabgrass, Large (large crabgrass; [13]): 100 | Crabgrass, Large plant response rating (large crabgrass; [14]): 10 | Plant response rating, Crabgrass, Large (large crabgrass; [10]): 5 | Plant response rating, Crabgrass, Large (large crabgrass; [11]): 5 | Plant response rating, Crabgrass, Large (large crabgrass; [12]): 0 | Plant response rating, Foxtail, Giant (giant foxtail; [6]): 0 | Plant response rating, Foxtail, Giant (giant foxtail; [3]): 10 | Plant response rating, Foxtail, Giant (giant foxtail; [9]): 50 | Plant response rating, Foxtail, Giant (giant foxtail; [13]): 75 | Foxtail, Giant plant response rating (giant foxtail; [14]): 10 | Plant response rating, Foxtail, Giant (giant foxtail; [10]): 10 | Plant response rating, Foxtail, Giant (giant foxtail; [11]): 5 | Plant response rating, Foxtail, Giant (giant foxtail; [12]): 5 | Plant response rating, Goosegrass (goosegrass; [6]): 0 | Plant response rating, Goosegrass (goosegrass; [3]): 30 | Plant response rating, Goosegrass (goosegrass; [9]): 85 | Plant response rating, Goosegrass (goosegrass; [13]): 100 | Goosegrass plant response rating (goosegrass; [14]): 15 | Plant response rating, Goosegrass (goosegrass; [10]): 10 | Plant response rating, Goosegrass (goosegrass; [11]): 10 | Plant response rating, Goosegrass (goosegrass; [12]): 5 | Plant response rating, Kochia (kochia; [6]): 80 | Plant response rating, Kochia (kochia; [3]): 100 | Plant response rating, Kochia (kochia; [9]): 100 | Plant response rating, Kochia (kochia; [13]): 100 | Kochia plant response rating (kochia; [14]): 100 | Plant response rating, Kochia (kochia; [10]): 100 | Plant response rating, Kochia (kochia; [11]): 100 | Plant response rating, Kochia (kochia; [12]): 90 | Plant response rating, Sunflower ([1]; 62 g ai/ha, scale 0 to 100): 0 | Plant response rating, Sunflower ([1]; 250 g ai/ha, scale 0-100): 0 | Plant response rating, Sunflower ([1]; 500 g ai/ha, scale 0 to 100 (0 no effect, 100 complete control), visual, 12 to 14 days): 0
